Earlier results, collected in publication PMC9800952 (Asian Journal of Pharmaceutical Sciences, 2022).

Conditions: pH 7

CC(C)OC(=O)CCC/C=C\C[C@@H]1[C@@H](CC[C@@H](O)CCc2ccccc2)[C@H](O)C[C@@H]1O [latanoprost]
LogD (pH7): 4.28
